“And” between values parts separate entries of the source, which are not always exact repeats. Identical values can stand only once.
Test system: H3K4me3 at known PRDM9 binding loci and control TSS loci
Assay: ChIP-qPCR of H3K4me3 in PRDM9-transfected HEK293T cells
Format: cell-based, human
Settings: Antibody H3K4me3; for 2^-dCq / dCq (IP-Input) / Cq: Figure 7 Replicate 2; for 2^-dCq (H3K4me3 IP relative to H3 IP): ChIP-qPCR Replicate 1; for Cq: ChIP-qPCR single well; for 2^-dCq (H3K4me3 ChIP relative to H3 ChIP): Replicate 1
Method: ChIP-qPCR assays were then conducted on known PRDM9 binding loci[26]. Ectopic expression of PRDM9^WT increased trimethylation of H3K4 (H3K4me3) at previously described PRDM9-specific intragenic and intergenic regions[26] (Fig. 7; Supplementary Fig. 12). […] The observed increases in H3K4me3 levels at intragenic and intergenic regions are therefore due directly to PRDM9 PR domain-dependent methylation activity, rather than through recruitment of other H3K4 methyltransferases or other indirect mechanisms.
ChIP qPCR analyses of H3K4me3 methylation levels of known PRDM9-bound loci and control loci. […] Concentrations used (µM) are indicated below each plot. (a–d) represent reported loci of PRDM9 methylation; (e, f) are transcriptional start sites (TSSs) which are not known loci of PRDM9 methylation. Data are normalized to total H3 and are presented as the mean ± upper and lower limits from two replicates. Representative plots of two independent experiments are shown in this figure. The coordinates and the genomic features associated with the assayed loci are indicated above each plot. Left Tailed Student's t-tests were performed by comparing DMSO (0 µM) treated cells to compound treated cells that have been transfected with the same plasmids. *p-value < 0.05 and **p-value < 0.01. Note that here we show a representative of two independent experiments (mean ± s.d of technical replicates) for our ChIP-qPCR experiments. Data obtained using this technique are inherently noisy due to stochastic differences in gene activity/histone positioning. Data are thus typically presented as representative rather than averaged. Source data are provided as a Source Data file.
HEK293T cells were transfected with 37.5 μg empty pcDNA3.1(+) vector (Invitrogen), or the same vector expressing either wild-type PRDM9 (PRDM9^WT) or a catalytically dead PRDM9 mutant (PRDM9^Mut) and 75 μL of Lipofectamine 2000 (Invitrogen) in 6 mL of Opti-MEM (GIBCO) for 48 h. […] ChIP assays were then performed as previously described. Briefly, cells were fixed in 1% formaldehyde and the fixation reaction was quenched in a final concentration of 0.1 M glycine. Cell pellets were first lysed in LB1 (50 mM HEPES-KOH pH 7.5, 140 mM NaCl, 1 mM EDTA, 10% Glycerol, 0.5% Igepal, 0.25% TritonX), washed once in LB2 Buffer (10 mM Tris-HCl pH 8, 200 mM NaCl, 1 mM EDTA, 0.5 mM EGTA) and finally sonicated in LB3 buffer (10 mM Tris-HCl pH 8, 100 mM NaCl, 1 mM EDTA, 0.5 mM EGTA, 0.1% Sodium deoxycholate, 0.5% N-laurosylsarcosine) using a bioruptor (Diagenode). Thereafter, 50 μg of chromatin was subjected to ChIP using the following antibodies purchased from Abcam: α-H3K4me3 (1:200, ab8580, lot:GR3207339-1) and α-H3 (1:250, ab1791, lot:GR300978-4). After extensive washing in RIPA wash buffer (50 mM HEPES-KOH pH 7.6, 100 mM LiCl, 1 mM EDTA, 1% Igepal, 0.7% Sodium Deoxycholate), DNA was eluted from beads. The eluted DNA was treated with RNase A and Proteinase K and purified using the QIAGEN PCR purification kit. qPCR was then carried out targeting the indicated loci (Supplementary Table 3). Upper and lower limits were defined by |2^−(dCq±s) − 2^−(∆Cq)|, where s = √((Standard deviation of Input Cq)^2 + (Standard deviation of Target Cq)^2). […]
formation. ChIP qPCR analyses of H3K4me3 methylation levels at known PRDM9-bound and control loci. Cells transfected with empty vector (negative control) or vectors overexpressing either wild-type PRDM9 (PRDM9 WT) or catalytically dead PRDM9 (PRDM9 MUT) were […]
Panels a-d represent reported loci of […]
(1 picture or pasted object on this page, not shown here)
PRDM9 methylation; e-f are TSSs which are not known sites of PRDM9 methylation. Data are normalized to total H3 and are presented as the mean ± upper and lower limits from two […]

[1] = Plasmid PRDM9WT, Drug Conc. 2.5

Question: Which results are given for `COc1cc(OC)cc(-c2noc(N3CCN(C)C4(CCN(c5ccnc(C)c5)CC4)C3)n2)c1` [MRK-740]?
Answer: 2^-dCq [1]: 68.6717; dCq (IP-Input) [1]: -6.102; 2^-dCq (Plasmid PRDM9WT, Drug Conc. 5): 143.684; dCq (IP-Input) (Plasmid PRDM9WT, Drug Conc. 5): -7.167; 2^-dCq (Plasmid PRDM9WT, Drug Conc. 10): 36.5414; dCq (IP-Input) (Plasmid PRDM9WT, Drug Conc. 10): -5.191; 2^-dCq (H3K4me3 IP relative to H3 IP) (Figure 7 E chr12:6643945-6644023 TSS (GAPDH), Plasmid Empty Vector, Drug Conc. 2.5): 42.6349; 2^-dCq (H3K4me3 IP relative to H3 IP) (Figure 7 E chr12:6643945-6644023 TSS (GAPDH), Plasmid Empty Vector, Drug Conc. 5): 95.4581; 2^-dCq (H3K4me3 IP relative to H3 IP) (Figure 7 E chr12:6643945-6644023 TSS (GAPDH), Plasmid Empty Vector, Drug Conc. 10): 117.266; 2^-dCq (H3K4me3 IP relative to H3 IP) (Figure 7 E chr12:6643945-6644023 TSS (GAPDH), Plasmid PRDM9WT, Drug Conc. 2.5): 25.3027; 2^-dCq (H3K4me3 IP relative to H3 IP) (Figure 7 E chr12:6643945-6644023 TSS (GAPDH), Plasmid PRDM9WT, Drug Conc. 5): 32.9385; 2^-dCq (H3K4me3 IP relative to H3 IP) (Figure 7 E chr12:6643945-6644023 TSS (GAPDH), Plasmid PRDM9WT, Drug Conc. 10): 45.6823; 2^-dCq (H3K4me3 IP relative to H3 IP) (Figure 7 F chr19:8510167-8510261 TSS (HNRNPM), Plasmid Empty Vector, Drug Conc. 2.5): 71.0331; 2^-dCq (H3K4me3 IP relative to H3 IP) (Figure 7 F chr19:8510167-8510261 TSS (HNRNPM), Plasmid Empty Vector, Drug Conc. 5): 77.1794; 2^-dCq (H3K4me3 IP relative to H3 IP) (Figure 7 F chr19:8510167-8510261 TSS (HNRNPM), Plasmid Empty Vector, Drug Conc. 10): 127.571; 2^-dCq (H3K4me3 IP relative to H3 IP) (Figure 7 F chr19:8510167-8510261 TSS (HNRNPM), Plasmid PRDM9WT, Drug Conc. 2.5): 23.4419; 2^-dCq (H3K4me3 IP relative to H3 IP) (Figure 7 F chr19:8510167-8510261 TSS (HNRNPM), Plasmid PRDM9WT, Drug Conc. 5): 34.0456; 2^-dCq (H3K4me3 IP relative to H3 IP) (Figure 7 F chr19:8510167-8510261 TSS (HNRNPM), Plasmid PRDM9WT, Drug Conc. 10): 45.2017; Cq [1]: 20.9173; Cq (Plasmid PRDM9WT, Drug Conc. 5): 20.8427 and 20.8648; Cq (Plasmid PRDM9WT, Drug Conc. 10): 21.3604 and 21.0972; 2^-dCq (H3K4me3 ChIP relative to H3 ChIP) (Figure 7 A, chr2:128811847-128811944 (Intergenic), Plasmid Empty Vector, Drug Conc. 2.5): 0.4418; 2^-dCq (H3K4me3 ChIP relative to H3 ChIP) (Figure 7 A, chr2:128811847-128811944 (Intergenic), Plasmid Empty Vector, Drug Conc. 5): 0.3019; 2^-dCq (H3K4me3 ChIP relative to H3 ChIP) (Figure 7 A, chr2:128811847-128811944 (Intergenic), Plasmid Empty Vector, Drug Conc. 10): 0.3892; 2^-dCq (H3K4me3 ChIP relative to H3 ChIP) (Figure 7 A, chr2:128811847-128811944 (Intergenic), Plasmid PRDM9WT, Drug Conc. 2.5): 1.223; 2^-dCq (H3K4me3 ChIP relative to H3 ChIP) (Figure 7 A, chr2:128811847-128811944 (Intergenic), Plasmid PRDM9WT, Drug Conc. 5): 0.9838; 2^-dCq (H3K4me3 ChIP relative to H3 ChIP) (Figure 7 A, chr2:128811847-128811944 (Intergenic), Plasmid PRDM9WT, Drug Conc. 10): 1.179; 2^-dCq (H3K4me3 ChIP relative to H3 ChIP) (Figure 7 B, chr8:49932778-49932856 (Intergenic), Plasmid Empty Vector, Drug Conc. 2.5): 0.3289; 2^-dCq (H3K4me3 ChIP relative to H3 ChIP) (Figure 7 B, chr8:49932778-49932856 (Intergenic), Plasmid Empty Vector, Drug Conc. 5): 0.2554; 2^-dCq (H3K4me3 ChIP relative to H3 ChIP) (Figure 7 B, chr8:49932778-49932856 (Intergenic), Plasmid Empty Vector, Drug Conc. 10): 0.5965; 2^-dCq (H3K4me3 ChIP relative to H3 ChIP) (Figure 7 B, chr8:49932778-49932856 (Intergenic), Plasmid PRDM9WT, Drug Conc. 2.5): 4.659; 2^-dCq (H3K4me3 ChIP relative to H3 ChIP) (Figure 7 B, chr8:49932778-49932856 (Intergenic), Plasmid PRDM9WT, Drug Conc. 5): 2.677; 2^-dCq (H3K4me3 ChIP relative to H3 ChIP) (Figure 7 B, chr8:49932778-49932856 (Intergenic), Plasmid PRDM9WT, Drug Conc. 10): 2.675

Reference: paper PMC6917776, “Discovery of a chemical probe for PRDM9” (Nature Communications, 2019)
